Source: patent US12187723B2 (BRISTOL-MYERS SQUIBB COMPANY, priority 2019, dated 2025)

How the values were obtained:
human TLR9 = molecular target: T1, human TLR9 (Homo sapiens, UniProt Q9NR96); test: TLR9 inhibition reporter assay (HEK-Blue SEAP); format: cell-based; settings: HEK-Blue cells overexpressing human TLR9, ODN2006 5 nM, 22 hour incubation
T1 construct: host or cells: HEK-Blue cells
T1 sequence (Q9NR96 26-1032): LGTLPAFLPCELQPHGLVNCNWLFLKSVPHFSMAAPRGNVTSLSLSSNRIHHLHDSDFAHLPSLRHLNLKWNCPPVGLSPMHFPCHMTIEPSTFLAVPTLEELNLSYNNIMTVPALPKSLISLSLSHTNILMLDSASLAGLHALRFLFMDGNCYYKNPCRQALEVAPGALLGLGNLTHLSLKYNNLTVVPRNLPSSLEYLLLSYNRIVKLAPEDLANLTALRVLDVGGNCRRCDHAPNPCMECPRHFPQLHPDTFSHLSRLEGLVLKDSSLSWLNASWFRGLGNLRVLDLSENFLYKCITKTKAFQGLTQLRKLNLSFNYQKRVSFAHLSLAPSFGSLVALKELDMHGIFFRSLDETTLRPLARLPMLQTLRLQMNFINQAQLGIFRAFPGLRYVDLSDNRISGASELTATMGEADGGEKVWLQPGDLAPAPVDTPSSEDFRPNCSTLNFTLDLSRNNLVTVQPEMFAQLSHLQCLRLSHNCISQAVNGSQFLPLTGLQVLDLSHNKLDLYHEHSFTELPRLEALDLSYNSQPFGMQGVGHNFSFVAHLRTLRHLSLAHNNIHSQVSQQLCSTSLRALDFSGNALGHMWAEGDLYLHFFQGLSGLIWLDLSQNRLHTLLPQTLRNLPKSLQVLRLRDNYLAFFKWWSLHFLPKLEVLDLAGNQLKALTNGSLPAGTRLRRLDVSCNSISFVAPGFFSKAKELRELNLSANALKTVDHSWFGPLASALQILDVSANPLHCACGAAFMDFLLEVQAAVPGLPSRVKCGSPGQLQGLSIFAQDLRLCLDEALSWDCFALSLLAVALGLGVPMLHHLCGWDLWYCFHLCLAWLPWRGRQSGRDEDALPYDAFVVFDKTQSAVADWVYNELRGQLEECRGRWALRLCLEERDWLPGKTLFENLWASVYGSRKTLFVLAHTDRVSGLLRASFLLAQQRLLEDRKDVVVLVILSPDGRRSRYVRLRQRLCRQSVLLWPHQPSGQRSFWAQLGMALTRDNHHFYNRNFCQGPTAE
Procedure, shortened: (§1)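 Human TLR7/8/9 HEK-Blue reporter lines; dose range 0.05 nM–50 μM; 30 min RT preincubation; stimulus gardiquimod 7.5 μM / R848 15.9 μM / ODN2006 5 nM respectively; 22 h, 37 °C; SEAP detected colorimetrically.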

human TLR8 = molecular target: T2, human TLR8 (Homo sapiens, UniProt Q9NR97); test: TLR8 inhibition reporter assay (HEK-Blue SEAP); format: cell-based; settings: HEK-Blue cells overexpressing human TLR8, R848 15.9 μM, 22 hour incubation
T2 construct: host or cells: HEK-Blue cells
T2 sequence (Q9NR97 27-1041): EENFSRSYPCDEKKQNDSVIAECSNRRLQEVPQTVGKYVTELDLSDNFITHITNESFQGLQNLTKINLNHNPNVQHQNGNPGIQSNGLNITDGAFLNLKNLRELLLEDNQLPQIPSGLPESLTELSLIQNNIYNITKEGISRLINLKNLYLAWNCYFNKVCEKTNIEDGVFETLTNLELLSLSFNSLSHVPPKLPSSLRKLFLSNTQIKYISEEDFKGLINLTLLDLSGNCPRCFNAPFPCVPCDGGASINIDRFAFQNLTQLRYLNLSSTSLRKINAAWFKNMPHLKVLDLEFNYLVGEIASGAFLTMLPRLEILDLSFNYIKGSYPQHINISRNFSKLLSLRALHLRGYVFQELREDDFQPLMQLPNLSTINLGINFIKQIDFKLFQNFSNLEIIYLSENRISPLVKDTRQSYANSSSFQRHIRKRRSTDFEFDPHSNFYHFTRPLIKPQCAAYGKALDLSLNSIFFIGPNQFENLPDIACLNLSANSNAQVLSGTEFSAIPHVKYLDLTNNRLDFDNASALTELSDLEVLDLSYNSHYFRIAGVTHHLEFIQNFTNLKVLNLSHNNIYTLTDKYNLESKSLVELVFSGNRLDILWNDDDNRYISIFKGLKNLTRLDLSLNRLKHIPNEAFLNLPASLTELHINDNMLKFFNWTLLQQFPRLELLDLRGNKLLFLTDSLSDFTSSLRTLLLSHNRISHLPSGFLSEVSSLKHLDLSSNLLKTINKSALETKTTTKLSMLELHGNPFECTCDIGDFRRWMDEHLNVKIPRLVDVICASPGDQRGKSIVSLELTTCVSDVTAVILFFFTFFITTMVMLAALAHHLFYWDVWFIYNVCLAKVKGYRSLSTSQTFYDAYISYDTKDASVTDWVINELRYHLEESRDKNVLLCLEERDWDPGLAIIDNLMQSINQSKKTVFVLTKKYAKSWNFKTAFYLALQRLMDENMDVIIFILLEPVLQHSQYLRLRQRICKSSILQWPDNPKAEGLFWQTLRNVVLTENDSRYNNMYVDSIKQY
Procedure, shortened: as §1

IC50 (human TLR9) [µM] | IC50 (human TLR8) [µM] | Compound
0.618 | 0.00029 | COc1cc(-c2cc3[nH]c(=O)n([C@@H]4CCCN(C)C4)c3cc2C(F)(F)F)cn2ncnc12 [Example 114, (R)-5-(8-methoxy-[1,2,4]triazolo[1,5-a]pyridin-6-yl)-1-(1-methylpiperidin-3-yl)-6-(trifluoromethyl)-1,3-dihydro-2H-benzo[d]imidazol-2-one]
13.4 | 0.0144 | CCCN1CCC[C@@H](n2c(=O)[nH]c3cc(-c4cc(OC)c5ncnn5c4)c(C(F)(F)F)cc32)C1 [Example 115, (R)-5-(8-methoxy-[1,2,4]triazolo[1,5-a]pyridin-6-yl)-1-(1-propylpiperidin-3-yl)-6-(trifluoromethyl)-1,3-dihydro-2H-benzo[d]imidazol-2-one]
34.2 | 0.0578 | COc1cc(-c2cc3[nH]c(=O)n([C@@H]4CCCN(CC(C)(C)C)C4)c3cc2C(F)(F)F)cn2ncnc12 [Example 116, (R)-5-(8-methoxy-[1,2,4]triazolo[1,5-a]pyridin-6-yl)-1-(1-neopentylpiperidin-3-yl)-6-(trifluoromethyl)-1,3-dihydro-2H-benzo[d]imidazol-2-one]
11.8 | 0.0333 | CCC(CC)CN1CCC[C@@H](n2c(=O)[nH]c3cc(-c4cc(OC)c5ncnn5c4)c(C(F)(F)F)cc32)C1 [Example 117, (R)-1-(1-(2-ethylbutyl)piperidin-3-yl)-5-(8-methoxy-[1,2,4]triazolo[1,5-a]pyridin-6-yl)-6-(trifluoromethyl)-1,3-dihydro-2H-benzo[d]imidazol-2-one]
18.1 | 0.0227 | COCCN1CCC[C@@H](n2c(=O)[nH]c3cc(-c4cc(OC)c5ncnn5c4)c(C(F)(F)F)cc32)C1 [Example 118, (R)-5-(8-methoxy-[1,2,4]triazolo[1,5-a]pyridin-6-yl)-1-(1-(2-methoxyethyl)piperidin-3-yl)-6-(trifluoromethyl)-1,3-dihydro-2H-benzo[d]imidazol-2-one]
26.3 | 0.00237 | COc1cc(-c2cc3[nH]c(=O)n([C@H]4CCCN(C)C4)c3cc2C(C)C)cn2ncnc12 [Example 119, (S)-6-isopropyl-5-(8-methoxy-[1,2,4]triazolo[1,5-a]pyridin-6-yl)-1-(1-methylpiperidin-3-yl)-1,3-dihydro-2H-benzo[d]imidazol-2-one]
1.94 | 0.0008 | COc1cc(-c2cc3[nH]c(=O)n([C@H]4CCCN(C(C)C)C4)c3cc2C(C)C)cn2ncnc12 [Example 120, (S)-6-isopropyl-1-(1-isopropylpiperidin-3-yl)-5-(8-methoxy-[1,2,4]triazolo[1,5-a]pyridin-6-yl)-1,3-dihydro-2H-benzo[d]imidazol-2-one]
13.6 | 0.00182 | CCCN1CCC[C@H](n2c(=O)[nH]c3cc(-c4cc(OC)c5ncnn5c4)c(C(C)C)cc32)C1 [Example 121, (S)-6-isopropyl-5-(8-methoxy-[1,2,4]triazolo[1,5-a]pyridin-6-yl)-1-(1-propylpiperidin-3-yl)-1,3-dihydro-2H-benzo[d]imidazol-2-one]
12.7 | 0.0015 | COc1cc(-c2cc3[nH]c(=O)n([C@H]4CCCN(C5CCC5)C4)c3cc2C(C)C)cn2ncnc12 [Example 122, (S)-1-(1-cyclobutylpiperidin-3-yl)-6-isopropyl-5-(8-methoxy-[1,2,4]triazolo[1,5-a]pyridin-6-yl)-1,3-dihydro-2H-benzo[d]imidazol-2-one]
> 50 | 0.00556 | COc1cc(-c2cc3[nH]c(=O)n([C@H]4CCCN(C5COC5)C4)c3cc2C(C)C)cn2ncnc12 [Example 123, (S)-6-isopropyl-5-(8-methoxy-[1,2,4]triazolo[1,5-a]pyridin-6-yl)-1-(1-(oxetan-3-yl)piperidin-3-yl)-1,3-dihydro-2H-benzo[d]imidazol-2-one]
20.8 | 0.00433 | COc1cc(-c2cc3[nH]c(=O)n([C@H]4CCCN(C5CCOCC5)C4)c3cc2C(C)C)cn2ncnc12 [Example 124, (S)-6-isopropyl-5-(8-methoxy-[1,2,4]triazolo[1,5-a]pyridin-6-yl)-1-(1-(tetrahydro-2H-pyran-4-yl)piperidin-3-yl)-1,3-dihydro-2H-benzo[d]imidazol-2-one]
7.72 | 0.00237 | COc1cc(-c2cc3[nH]c(=O)n([C@H]4CCCN(CC5CCOCC5)C4)c3cc2C(C)C)cn2ncnc12 [Example 125, (S)-6-isopropyl-5-(8-methoxy-[1,2,4]triazolo[1,5-a]pyridin-6-yl)-1-(1-((tetrahydro-2H-pyran-4-yl)methyl)piperidin-3-yl)-1,3-dihydro-2H-benzo[d]imidazol-2-one]
27.8 | 0.00364 | COc1cc(-c2cc3[nH]c(=O)n([C@H]4CCCN(CC5CCOC5)C4)c3cc2C(C)C)cn2ncnc12 (stereo partly drawn) [Example 126, 6-isopropyl-5-(8-methoxy-[1,2,4]triazolo[1,5-a]pyridin-6-yl)-1-((3S)-1-((tetrahydrofuran-3-yl)methyl)piperidin-3-yl)-1,3-dihydro-2H-benzo[d]imidazol-2-one]
15.6 | 0.0028 | COc1cc(-c2cc3[nH]c(=O)n([C@H]4CCCN(CC5CC5)C4)c3cc2C(C)C)cn2ncnc12 [Example 127, (S)-1-(1-(cyclopropylmethyl)piperidin-3-yl)-6-isopropyl-5-(8-methoxy-[1,2,4]triazolo[1,5-a]pyridin-6-yl)-1,3-dihydro-2H-benzo[d]imidazol-2-one]
3.69 | 0.004 | COc1cc(-c2cc3[nH]c(=O)n([C@H]4CCCN(CC(C)C)C4)c3cc2C(C)C)cn2ncnc12 [Example 129, (S)-1-(1-isobutylpiperidin-3-yl)-6-isopropyl-5-(8-methoxy-[1,2,4]triazolo[1,5-a]pyridin-6-yl)-1,3-dihydro-2H-benzo[d]imidazol-2-one]
9.61 | 0.00852 | CCC(CC)CN1CCC[C@H](n2c(=O)[nH]c3cc(-c4cc(OC)c5ncnn5c4)c(C(C)C)cc32)C1 [Example 130, (S)-1-(1-(2-ethylbutyl)piperidin-3-yl)-6-isopropyl-5-(8-methoxy-[1,2,4]triazolo[1,5-a]pyridin-6-yl)-1,3-dihydro-2H-benzo[d]imidazol-2-one]
11 | 0.0101 | COc1cc(-c2cc3[nH]c(=O)n([C@H]4CCCN(CCC(C)C)C4)c3cc2C(C)C)cn2ncnc12 [Example 132, (S)-1-(1-isopentylpiperidin-3-yl)-6-isopropyl-5-(8-methoxy-[1,2,4]triazolo[1,5-a]pyridin-6-yl)-1,3-dihydro-2H-benzo[d]imidazol-2-one]
